Experiments:
CD4 T cells [1] = assay: Ex vivo IFN-γ ELISPOT of CD8 depleted spleen lymphocytes from TERT DNA-immunized mice; format: in vivo, A2/DR1 mice; conditions: mice immunized with DNA encoding TERT
Description: (5A-5B), A2/DR1 mice (n=8) were immunized twice with a DNA encoding TERT.
(5B), CD8 depleted spleen lymphocytes from DNA-immunized mice were assayed in ex vivo IFN-γ ELISPOT. Columns mean of triplicate from 4 mice; bars, SD.
To study the processing of UCP, A2/DR1 mice were immunized with a pTrip-TERT DNA (100 μg) at days 0 and 14 as previously reported (Adotevi et al, 2010). In some experiment CD4 T cells were depleted with anti-CD4 mAb treatment (clone GK1.5) prior DNA immunization. For UCP immunization, mice were injected with 100 μg of each UCP emulsified in incomplete Freund adjuvant (IFA, Sigma-Aldrich, France). In some experiments, 50 μg of pY988 peptide was co-injected with 100 μg of each UCP in IFA. All peptide vaccinations were done subcutaneously (s.c) at the right abdominal flank. Eight to ten week-old mice were bred and maintained in our animal facilities. All experiments were done according to the good laboratory practices defined by animal experimentation rules in France.
Ex vivo pentamer staining was performed as previously described (Adotevi et al, 2010; Adotevi et al, 2006). Cells were stained with PE-conjugated pY988 and pY572 HLA-A2.1 pentamer (ProImmune, UK). After cell staining, samples were analyzed by flow cytometry on a FACS Canto II (BD Biosciences, France) and using Diva software. […]
The inventors and others have previously reported that the use of humanized HLA transgenic mice models to screen for human tumor antigens represents a potent alternative to optimize “reverse immunology” approaches for epitope identification (Adotevi et al, 2006; Osen et al, 2010). […] To assess whether UCPs can be endogenously processed from the TERT protein, the inventors performed immunizations with a plasmid DNA encoding the full length TERT sequence and the UCP-specific CD4 splenocytes were monitored by a five-day 3H-thymidine incorporation assay. […] To this end, freshly isolated CD4 T cells from UCP-vaccinated mice were cultured in the presence of syngenic iDC pulsed or not with UCP and cytokines production was measured.

CD4 T cells [2] = assay: Avidity of UCP-specific CD4 T cells from UCP-immunized mice, IFN-γ ELISPOT; format: in vivo, A2/DR1 mice; conditions: vaccinated once, ~1 μg peptide
Description: (5C-5D), Mice (3-4/group) were immunized once with each UCP in IFA.
(5D), Isolated CD4 T cells were cultured ex vivo with increasing concentrations of peptide as indicated. IFN-γ production was measured by ELISPOT. Curves, mean responses from 3 mice, bars, SD.
(5E), Mice were vaccinated once with low dose of UCP as indicated. UCP-specific T cell responses were evaluated in spleen by ex vivo IFN-γ ELISPOT.
(§1) To study the processing of UCP, A2/DR1 mice were immunized with a pTrip-TERT DNA (100 μg) at days 0 and 14 as previously reported (Adotevi et al, 2010). In some experiment CD4 T cells were depleted with anti-CD4 mAb treatment (clone GK1.5) prior DNA immunization. For UCP immunization, mice were injected with 100 μg of each UCP emulsified in incomplete Freund adjuvant (IFA, Sigma-Aldrich, France). In some experiments, 50 μg of pY988 peptide was co-injected with 100 μg of each UCP in IFA. […]
(§2) Ex vivo pentamer staining was performed as previously described (Adotevi et al, 2010; Adotevi et al, 2006). […] After cell staining, samples were analyzed by flow cytometry on a FACS Canto II (BD Biosciences, France) and using Diva software. […]
Next, to assess the avidity of UCP-specific CD4 T cell, freshly purified CD4 T cells from UCP-immunized mice were cultured in the presence of increasing concentrations of peptide and the number of specific IFN-γ producing CD4 T cells was measured by ELISPOT. […]

HLA-DR DR11 = assay: HLA-DR binding assay, competitive ELISA; parameters: species or system human; conditions: means of three experiments
HLA-DR DR3 = assay: HLA-DR binding assay, competitive ELISA; parameters: species or system human; conditions: means of three experiments
Description: (§3) Synthetic peptides (>80% purity) were purchased from Activotec (Cambridge, United Kingdom). The binding capacity to HLA-DR molecules was assessed by competitive ELISA as previously reported (Wang et al).
(§4) To predict the existence of CD4 epitopes within the amino acid sequence of TERT capable of binding to multiple HLA-DR molecules, the inventors have combined results from three algorithms Syfpeithi, NetMHCpan-2.1 and NetMHC2.2. They have selected four 15-mers peptide sequences referred as UCP1 to UCP4 that scored high in the probability scale for their binding capacity to the commonly found human HLA-DR alleles (Table 1). […] Data are expressed as relative activity RA (ratio of the IC50 of UCPs to the IC50 of the reference peptide) and are the means of three experiments. Good binders have a […] and weak binder are […].

HLA-DR molecules = assay: HLA-DR binding assay, competitive ELISA, summary over the alleles tested; parameters: species or system human; conditions: RA intermediate 100-500, low <100
Description: as §3, §4
Thus, according to phenotypic frequencies of the 10 prevalent HLA-DR antigens, these peptides could cover more than 90% of population (Wang et al).

[3] = tested on: pY988-specific CD8 T cells; assay: Co-immunization pY988 plus UCP: pY988-specific CTL response by pentamer staining and IFN-γ ELISPOT; format: in vivo, A2/DR1 mice; conditions: pY988 plus UCP in IFA versus pY988/IFA alone, day 10, spleen
Text: Mice (3/group) were immunized either with pY988 plus each UCP in IFA or with pY988/IFA alone and the immune responses were monitored ten days later in the spleen. 6A, freshly isolated CD8 T cells were stained with TERT pY988/A2+ pentamer. Representative flow cytometry dot plots (upper panel) and mean percentages of pY988/A2+ CD8 T cells (lower panel) are shown.
6B, Ex vivo detection of anti-pY988 CD8 T cells by IFN-γ ELISPOT.
as §1, §2
CD4 T cell helper functions are thought to be important for the generation of potent and sustained CTL responses (Shedlock et al, 2003). […] The pY988-specific CTL response was measured ex vivo by pentamer staining and ELISPOT assays. […]

HLA-DR DRB4 = HLA-DR DRB4 (Homo sapiens, UniProt P01903+P13762); assay: HLA-DR binding assay, competitive ELISA; conditions: means of three experiments
Description: as §3, §4

HLA-DR DR13 = assay: HLA-DR binding assay, competitive ELISA; parameters: species or system human; conditions: means of three experiments
Description: as §3, §4

[4] = tested on: UCP-specific CD4 T cell clones; assay: TNF secretion of UCP-specific CD4 T cell clones from cancer patient, flow cytometry; format: cell-based, human; conditions: CD4 T cell clones with cognate peptide, 5 h, Brefeldin A; read-out: peptide concentration at half-maximal TNF secretion
Description: T cell clones were obtained by limiting dilution of cancer patients T cell lines stimulated one time with the pool of UCPs. (2A and 2C) Percentage of TNF-producing T cells and of T cell clones isolated from patients GE001 in response to 10 μM of the relevant UCP; 10^5 T cells were incubated for 5 h in the presence of Brefeldin A, stained with CD4 antibody, fixed, and stained with anti-TNF antibody in a permeabilization buffer; 10^4 T cells were then analyzed in flow cytometry. (2B and 2D) Reactivity of the CD4 T cell clones in response to relevant UCP. CD4 T cell clones were culture with a range of the indicated peptide concentration. TNF secretion was assessed 5 h in the presence of Brefeldin A, by flow cytometry. (2E) Detection of cytokines produced by GE001.36 T cell clone in response to 10 μM of UCP4 using human ten-plex cytokines assay. […]
For intracytoplasmic cytokine staining, after a 5-h stimulation period with or without 10 μM peptide, T cells were labeled with anti-CD4 (BD Bioscience, USA) and anti-TNF-α (ebioscience, USA) using Cytofix/Cytoperm KIT (BD Bioscience). […] Samples were acquired on a FACS Canto II (BD Biosciences) and analyzed with the DIVA software. […]

[5] = tested on: blood lymphocytes from NSCLC patients and healthy volunteers; assay: Spontaneous UCP-specific T cell responses, IFN-γ ELISPOT after one week stimulation; format: cell-based, human; conditions: frequency of T cell responses
[6] = tested on: immature bone marrow-derived DCs; assay: In vitro DC-CD4 T cell co-culture; format: cell-based, A2/DR1 mice; conditions: CD4 T cells from UCP2/IFA versus IFA injected mice
Description: 8B, Schema of the in vitro DC-CD4 T cell co-culture.
8C, IFN-γ and GM-CSF production measured by ELISA in the supernatant.
8D, Expression of CD86 and HLA-DR on CD11c+ DC.
8E, Interleukin 12 production measured in supernatant by ELISA.
Spleen or lymph nodes CD11c+ DCs from peptide-immunized mice were directly analyzed for co-stimulatory receptor expression. In some experiments, immature bone marrow-derived DCs (iDC) from A2/DR1 mice were cultured 15-h with CD4 T cells from mice immunized with UCP or IFA alone and then stained for cell surface expression of co-stimulatory receptors and cytokines production.
The induction of dendritic cell activation represents one major helper mechanism used by CD4+ Th1 cells to sustain antigen presentation and provide costimulatory signals to the CTLs. This is referred as the “ménage à trois” model (Ridge et al, 1998). To test this mechanism, the inventors have analyzed the expression of co-stimulating receptors on DCs from mice immunized with the mix of pY988+/−UCP2. […] In a second set of experiments, isolated CD4 T cells from UCP2/IFA or IFA injected mice were co-cultured with syngenic iDCs as shown in FIG. 8B. As expected, UCP2-specific CD4 T cells produced significant amounts of Th1 cytokines such as IFN-γ and GM-CSF (FIG. 8C).

## GTAFVQMPAHGLFPW [UCP3]
CD4 T cells [1]
  specific CD4 T cell responses detected: in all immunized mice
CD4 T cells [2]
  IFN-γ+ CD4 T cells after low dose vaccination: stimulated potent IFN-γ+ CD4 T cells

## PAAFRALVAQCLVCV (listed as Homo sapiens) [UCP1, universal cancer peptide derived from TERT, 15-mer]
HLA-DR DR11
  Relative affinity RA (ratio of the IC50 of UCPs to the IC50 of the reference peptide): 25
HLA-DR DR3
  Relative affinity RA (ratio of the IC50 of UCPs to the IC50 of the reference peptide): 0.4
HLA-DR molecules
  capacity to bind HLA-DR molecules: able to bind every HLA-DR molecules tested
[3]
  frequency of pY988/A2 pentamer+ CD8 T cells: little impact

## SLCYSILKAKNAGMS [UCP4, universal cancer peptide derived from TERT, 15-mer]
CD4 T cells [1]
  specific CD4 T cell responses detected: in all immunized mice
HLA-DR DR11
  Relative affinity RA (ratio of the IC50 of UCPs to the IC50 of the reference peptide): 0,3
HLA-DR DRB4
  Relative affinity RA (ratio of the IC50 of UCPs to the IC50 of the reference peptide): >500
HLA-DR DR3
  Relative affinity RA (ratio of the IC50 of UCPs to the IC50 of the reference peptide): >500
HLA-DR DR13
  Relative affinity RA (ratio of the IC50 of UCPs to the IC50 of the reference peptide): >500
[4]
  EC50: < 0.1 µM
[5]
  CD4 T cell responses to individual UCPs: more immunogenic

## KSVWSKLQSIGIRQH [UCP2, universal cancer peptide derived from TERT, 15-mer]
CD4 T cells [1]
  specific CD4 T cell responses detected: in all immunized mice
CD4 T cells [2]
  IFN-γ+ CD4 T cells after low dose vaccination: stimulated potent IFN-γ+ CD4 T cells
[6]
  DC activation and interleukin-12 production in presence of UCP2-specific CD4 T cells: induced potent DCs activation
[4]
  EC50: ~4 µM
[5]
  CD4 T cell responses to individual UCPs: more immunogenic
HLA-DR molecules
  capacity to bind HLA-DR molecules: able to bind every HLA-DR molecules tested

— patent US10695409B2, “Universal cancer peptides derived from telomerase” (INVECTYS, priority 2012, dated 2020)
